The values that follow come from patent publication US6608048B2, “Tricyclic protein kinase inhibitors” (Wyeth Holdings, priority 2000, dated 2003).

The melting point is the temperature of the solid-liquid transition. The term IC50 denotes the concentration at which inhibition is half-maximal.

SMILES strings stand for the structures.

In series [1] the test system is Human epidermoid tumors (A431). Put plainly: In vivo inhibition of the growth of human epidermoid tumors (A431). To be noted: for S/T (# of Survivors/# of Treated): Day +21 post tumor staging. The procedure: BALB/c nu/nu female mice (Charles River, Wilmington, Mass.) were used in the in vivo standard pharmacological test procedures. Human epidermoid carcinoma cells A-431 (American Type Culture Collection, Rockville, Md. #CRL-155) were grown in vitro as described above. A unit of 5×10^6 cells were injected subcutaneously into mice. When tumors attained a mass of between 100 and 150 mg, the mice were randomized into treatment groups (day zero). Mice were treated orally (PO) once a day on days 1 through 10 post staging with doses of either 40, 20, 10, 3 or 1 mg/kg/dose of the compound to be evaluated in 0.2% Klucel. Control animals received no drug. Tumor mass was determined every 7 days [(length×width^2)/2] for 28 days post staging. Relative tumor growth (Mean tumor mass on day 7, 14, and 21 divided by the mean tumor mass on day zero) is determined for each treatment group. The % T/C (Tumor/Control) is determined by dividing the relative tumor growth of the treated group by the relative tumor growth of the placebo group and multiplying by 100. A compound is considered to be active if the % T/C is found to be=42%.

In series [2] the target is T1, EGF-R Kinase (recombinant enzyme) (Homo sapiens, UniProt P00533).
T1 construct: containing the EGFR cDNA encoding amino acids 645-1186 preceded by Met-Ala-(Ris)6; made in house; host or cells: Sf9 insect cells, recombinant baculovirus vHcEGFR52
T1 sequence (P00533 669-1210): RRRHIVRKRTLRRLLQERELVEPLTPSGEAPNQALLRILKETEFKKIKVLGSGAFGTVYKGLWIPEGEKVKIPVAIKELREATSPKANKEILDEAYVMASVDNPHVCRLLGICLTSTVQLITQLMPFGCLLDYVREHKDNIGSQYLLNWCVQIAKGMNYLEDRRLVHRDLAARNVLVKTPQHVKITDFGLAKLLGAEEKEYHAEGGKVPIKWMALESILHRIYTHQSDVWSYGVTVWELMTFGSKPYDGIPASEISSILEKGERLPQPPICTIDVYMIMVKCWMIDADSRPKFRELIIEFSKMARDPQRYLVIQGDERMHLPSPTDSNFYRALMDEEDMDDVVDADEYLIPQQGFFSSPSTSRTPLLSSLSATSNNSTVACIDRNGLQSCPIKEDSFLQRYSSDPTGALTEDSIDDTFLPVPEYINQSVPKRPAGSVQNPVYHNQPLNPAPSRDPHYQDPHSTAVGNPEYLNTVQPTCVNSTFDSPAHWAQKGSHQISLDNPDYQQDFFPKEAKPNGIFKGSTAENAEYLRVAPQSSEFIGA
Put plainly: Inhibition of Epidermal Growth Factor Receptor Kinase (EGF-R) using recombinant enzyme. The format is biochemical. The note with it: RR-SRC peptide substrate. The procedure: Representative test compounds were evaluated for their ability to inhibit the phosphorylation of the tyrosine residue of a peptide substrate catalyzed by the enzyme epidermal growth factor receptor kinase. […] The enzyme used in this assay is the His-tagged cytoplasmic domain of EGFR. […] A cytoplasmic extract was prepared using 1% Triton X-100 and applied to Ni-NTA column.
Test compounds were made into 10 mg/mL stock solutions in 100% dimethylsulfoxide (DMSO).
The IC50 is the concentration of test compound needed to reduce the total amount of phosphorylated substrate by 50%. The % inhibition of the test compound was determined for at least three different concentrations and the IC50 value was evaluated from the dose response curve.
CPM(control) is in units of counts per minute and was a number expressing the amount of radiolabeled ATP (γ-^33P) incorporated into the RR-SRC peptide substrate by the enzyme after 90 minutes at room temperature in the absence of test compound as measured by liquid scintillation counting. The CPM values were corrected for the background counts produced by ATP in the absence of the enzymatic reaction.

With `N#Cc1cnc2cc3c(cc2c1Nc1ccc(F)c(Cl)c1)NCCO3` [Example 7, 9-(3-Chloro-4-fluoroanilino)-2,3-dihydro-1H-[1,4]oxazino[3,2-g]quinoline-8-carbonitrile], the melting point was in the range of 244 to 245 °C.
Take `CN(C)C/C=C/C(=O)N1CCOc2cc3ncc(C#N)c(Nc4ccc(F)c(Cl)c4)c3cc21` [Example 9, 9-(3-Chloro-4-fluoroanilino)-1-[(2E)-4-(dimethylamino)-2-butenoyl]-2,3-dihydro-1H-[1,4]oxazino[3,2-g]quinoline-8-carbonitrile]: the “S/T (# of Survivors/# of Treated)” value in series [1] (1 mg/kg/dose PO, days 1 through 10) is recorded as 5/5; in series [1] (3 mg/kg/dose PO, days 1 through 10) it was 5/5; in series [1] (10 mg/kg/dose PO, days 1 through 10), 5/5; in series [1] (20 mg/kg/dose PO, days 1 through 10), 5/5; in series [1] (40 mg/kg/dose PO, days 1 through 10), 5/5. The “RTG (relative tumor growth) Day 21” value in series [1] (10 mg/kg/dose PO, days 1 through 10, Day 21) came to 11.09. Moreover, the “inhibition of tumor growth in vivo (in words)” value in series [1] (A431 tumors in mice, PO) is given as “effective inhibitor of tumor growth in vivo”.
The molecule `CN(C)CCCC(=O)N1CCOc2cc3ncc(C#N)c(Nc4ccc(F)c(Cl)c4)c3cc21` [Example 10, 9-(3-Chloro-4-fluoroanilino)-1-[4-(dimethylamino)butanoyl]-2,3-dihydro-1H-[1,4]oxazino[3,2-g]quinoline-8-carbonitrile] gave a melting point of 165 °C. Further, the IC50 in series [2] stood at 200 nM.
Take `N#Cc1cnc2cc3c(cc2c1Nc1ccc(F)c(Cl)c1)N(CCCCCl)CCO3` [Example 11, 1-(4-Chlorobutyl)-9-(3-chloro-4-fluoroanilino)-2,3-dihydro-1H-[1,4]oxazino[3,2-g]quinoline-8-carbonitrile]: the melting point is 78 to 79 °C.
For `CN(C)CCCCN1CCOc2cc3ncc(C#N)c(Nc4ccc(F)c(Cl)c4)c3cc21` [Example 12, 9-(3-Chloro-4-fluoroanilino)-1-[4-(dimethylamino)butyl]-2,3-dihydro-1H-[1,4]oxazino[3,2-g]quinoline-8-carbonitrile], the melting point was found to be 105 °C. The IC50 in series [2] amounted to 5 nM.
In turn, `N#Cc1cnc2cc3c(cc2c1Nc1ccc(Cl)cc1Cl)OCCN3` [Example 22, 9-(2,4-Dichloroanilino)-3,4-dihydro-2H-[1,4]oxazino[2,3-g]quinoline-8-carbonitrile] yielded a melting point of 254 to 255 °C.
Same read-out and setting: the value for `CCN1CCN(CCCCN2CCOc3cc4c(Nc5ccc(Cl)cc5Cl)c(C#N)cnc4cc32)CC1` [Example 24, 9-(2,4-Dichloroanilino)-4-[4-(4-ethyl-1-piperazinyl)butyl]-3,4-dihydio-2H-[1,4]oxazino[2,3-g]quinoline-8-carbonitrile] was 97 to 98 °C.
